For three molecules, IC50 results are on record in patent publication US20090227648A1, “PYRAZOLE DERIVATIVES USEFUL FOR THE TREATMENT OF CANCER” (AstraZeneca AB, priority 2004, published 2009).

pIC50: −log10 of the molar value.

In the experiment the target is T1, human Trk A kinase (Homo sapiens, UniProt P04629).
T1 construct: HIS; made in house; host or cells: SF9 insect cells
T1 sequence (P04629 442-796): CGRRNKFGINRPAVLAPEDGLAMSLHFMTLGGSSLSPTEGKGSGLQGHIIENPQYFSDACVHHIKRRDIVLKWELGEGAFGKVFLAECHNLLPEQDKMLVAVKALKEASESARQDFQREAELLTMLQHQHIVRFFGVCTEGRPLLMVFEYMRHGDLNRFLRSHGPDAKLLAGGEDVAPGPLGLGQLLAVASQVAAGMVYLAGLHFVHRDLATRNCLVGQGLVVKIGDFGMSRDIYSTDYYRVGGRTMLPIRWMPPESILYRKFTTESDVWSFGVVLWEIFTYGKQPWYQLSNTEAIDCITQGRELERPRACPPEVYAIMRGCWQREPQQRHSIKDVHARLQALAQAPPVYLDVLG
The experiment is described as follows: Trk A kinase Alphascreen assay. It is filed as biochemical. Particulars: intracellular domain of HIS-tagged human Trk A (aa 442-796), 70 μM ATP, 20 minutes, room temperature; read-out: Trk A inhibitory activity IC50. On the procedure:
Trk A kinase activity was measured for its ability to phosphorylate synthetic tyrosine residues within a generic polypeptide substrate using an Amplified Luminescent Proximity Assay (Alphascreen) technology (PerkinEilmer, 549 Albany Street, Boston, Mass.).
To measure Trk A kinase activity, the intracellular domain of a HIS-tagged human Trk A kinase (amino acids 442-796 of Trk A, Swiss-Prot Primary Accession Number P04629) was expressed in SF9 cells and purified using standard nickel column chromatography. After incubation of the kinase with a biotinylated substrate and adenosine triphosphate (ATP) for 20 minutes at room temperature, the kinase reaction was stopped by the addition of 30 mM ethylenediaminetetraacetic acid (EDTA). The reaction was performed in 384 well microtitre plates and the reaction products were detected with the addition of strepavidin coated Donor Beads and phosphotyrosine-specific antibodies coated Acceptor Beads using the EnVision Multilabel Plate Reader after an overnight incubation at room temperature.
On the technique in general: Bead proximity is the source of the signal in Alpha formats.
The term pIC50 denotes the IC50 on a negative log10 scale, so that one unit is a factor of ten. Regarding `N#Cc1cc([N+](=O)[O-])c(Nc2cc(C3CC3)[nH]n2)cc1N[C@@H](CO)c1ccc(F)cc1` [Example 10, (R)-4-(5-Cyclopropyl-1H-pyrazol-3-ylamino)-2-(1-(4-fluorophenyl)-2-hydroxyethylamino)-5-nitrobenzonitrile], the pIC50 was 6.07.

With `C[C@H](Nc1cc(Nc2cc(C3CC3)[nH]n2)c([N+](=O)[O-])cc1F)c1ccc(F)cc1` [Example 13, (S)—N^1-(5-Cyclopropyl-1H-pyrazol-3-yl)-4-fluoro-N^3-(1-(4-fluorophenyl)ethyl)-6-nitrobenzene-1,3-diamine], the pIC50 is 6.37.

On to `C[C@H](Nc1cc(NCCO)c([N+](=O)[O-])c(Nc2cc(C3CC3)[nH]n2)c1)c1ccc(F)cc1` [Example 17, (S)-2-(3-(5-Cyclopropyl-1H-pyrazol-3-ylamino)-5-(1-(4-fluorophenyl)ethylamino)-2-nitrophenylamino)ethanol], for which the pIC50 was 5.91.
